Test results: patent US4946839A, “Azetidine derivatives, compositions and methods of treating” (priority 1987, dated 1990)
pEC50: −log10 of the molar value.

Experiments:
[1] = tested on: GC1 receptor; assay: inhibition of ASP-stimulated calcium influx by phencyclidine and its prevention; format: cell-based, rat
Protocol: (§1) Studies described hereinbelow on the usefulness of the compounds were performed on primary cultures of cerebellar granule cells prepared from 8-day old rats according to the procedures as set forth in Wroblewski et al., Neuropharmacology 24(9), 919-921 (1985). These cultures are characterized by the presence of four subtypes of excitatory amino acid receptors, classified on the basis of the coupling of their recognition sites to specific signal transduction systems, as well as according to the pharmacology of their recognition sites. The classification distinguishes between excitatory amino acid recognition sites coupled with PI hydrolysis (Gp) and those coupled with the activation of Ca^2+ (GC). This is disclosed in greater detail in Wroblewski et al. Proc. Natl. Acad. Sci. […], 5068-5072 (1987) GP1 and GC1 receptors are activated by glutamate, aspartate, N-methyl-D-aspartate (NMDA), antagonized by 2-amino-5-phosphonovalerate (APV), and inhibited by Mg^2+ . These two receptor subtypes correspond to the NMDA receptor, however, two distinct receptors must be postulated on the basis of their signal transducing mechanisms. The GP2 receptor is activated by glutamate and quisqualate, and is insensitive to Mg^2 + and APV. The GC2 receptor is activated by kainate and preferentially antagonized by cis-piperidine-2,3-dicarboxylate. The GC2 receptor is also insensitive to Mg^2+ inhibition. These two receptors correspond to the quisqualate and kainate receptors, respectively.
(§2) Phencyclidine (PCP), once used as an anaesthetic, produces strong psychotropic effects manifested in humans by a state of sensory isolation, hallucinations and confusional states. It is one of the most widely abused drugs in the United States. One of the possible mechanisms of action of PCP involves the noncompetitive inhibition of the signal transduction at excitatory amino acid receptors, through allosteric interaction at a site distinct from the primary transmitter site (see Proc. Natl. Acad. Sci. USA discussed above).

[2] = tested on: GP1 receptor; assay: PI hydrolysis stimulated by GLU in cerebellar granule cells; format: cell-based, rat; details: 20 μM GLU (Table 2); * = antagonistic activity
Protocol: as §1
(§3) Cis-azetidine-2,4-dicarboxylic acid and derivatives selectively potentiate signal transduction at the GC1 and GP1 receptors. Referring to Table 1 the influx of calcium stimulated by NMDA, GLU, ASP and […] acting at the GC1 receptor is potentiated by cis-azetidine-2,4-dicarboxylic acid, while the action of KAIN at the GC2 receptor is not affected.

[3] = tested on: GC1 receptor; assay: calcium influx stimulated by excitatory amino acids in primary cultures of cerebellar granule cells (GC1); format: cell-based, rat; details: for Calcium Influx % of stimulation by 10 μM GLU: 10 μM GLU (Table 2)
Protocol: as §1, §3

[4] = tested on: NMDA receptor subtype; details: icv NMDA; cited from earlier work
[5] = tested on: GC1 receptor; assay: calcium influx stimulated by GLU in the absence and presence of Az5; format: cell-based, rat
Protocol: as §1
Azxetidines increase the potency but not the efficacy of GLU action at the GC1 receptor. […] This indicates a 7-fold potentiation of the action of GLU.

[6] = tested on: binding site for PCP; assay: [^3 H]PCP radioligand binding; details: radioligand binding studies
Description: as §2

[7] = tested on: NMDA receptor subtype; assay: cGMP content in the cerebellum after icv injection of NMDA; format: in vivo, rat; parameters: cGMP: unit not given here
Protocol: The action of the NMDA receptor subtype can be estimated in vivo by measuring the changes in the content of cyclic GMP (cGMP) in the rat cerebellum after intracerebroventricular injections of NMDA. […] In terms of its pharmacology and of its mechanism of signal transduction the active receptor in the above conditions can be compared to the CC1 reporter measured in cultures of cerebellar granule cells.
In two series of experiments rats were injected icv with NMDA together with or without cis-azetidine-2,4-dicarboxylic acid.

[8] = tested on: GC2 receptor; assay: calcium influx stimulated by kainate at the GC2 receptor in cerebellar granule cells; format: cell-based, rat
Protocol: as §1, with “These two receptors correspond to the quisqualate and kainate receptors, respectively.” left out

N[C@@H](CC(=O)O)C(=O)O [ASP, Aspartate, reference compound]
ASP-stimulated calcium influx ([1]; ASP 50 μM, no PCP): 31.3 ± 3.4 nmol ^45 Ca^2+ /mg protein

CC(C)(C)OC(=O)[C@H]1C[C@@H](C(=O)O)N1 (relative stereo) [Az3, cis-azetidine-2,4-dicarboxylic acid mono-t-butyl ester]
PI hydrolysis % of stimulation by 20 μM GLU [2]: 125%
Calcium Influx % of stimulation by 10 μM GLU [3]: 141%
% activity (potentiation of calcium influx) ([3]; agonist Glu 10 μM (Table 3)): 141%
% activity (potentiation of calcium influx) ([3]; agonist Glu 20 μM (Table 3)): 136%

NC(=O)[C@@H]1C[C@H](C(=O)O)N1 (relative stereo) [Az8, cis-4-carbamoylazetidine-2-carboxylic acid]
% activity (potentiation of calcium influx) ([3]; agonist Asp 20 μM (Table 3)): 150%

O=C(O)[C@H]1C[C@@H](CO)N1 (relative stereo) [Az13, cis-4-(hydroxymethyl)azetidine-2-carboxylic acid]
% activity (potentiation of calcium influx) ([3]; agonist Asp 10 μM (Table 3)): 159%

NC(CCCP(=O)(O)O)C(=O)O (centres unmarked) [APV, 2-amino-5-phosphonovaleric acid]
effect on increases in cGMP content induced by NMDA [4]: antagonized

O=C(O)[C@H]1C[C@H](C(=O)O)N1 (relative stereo) [Az6, trans-azetidine-2,4-dicarboxylic acid]
PI hydrolysis % of stimulation by 20 μM GLU [2]: 83%
Calcium Influx % of stimulation by 10 μM GLU [3]: 103%

COC(=O)[C@H]1C[C@H](C(=O)OC(C)(C)C)N1 (relative stereo) [Az2, trans-azetidine-2,4-dicarboxylic acid-t-butyl methyl ester]
Calcium Influx % of stimulation by 10 μM GLU [3]: 104%

COC(=O)[C@@H]1C[C@H](C(=O)OC)N1 [Az7, cis-azetidine-2,4-dicarboxylic acid dimethyl ester]
% activity (potentiation of calcium influx) ([3]; agonist Glu 50 μM (Table 3)): 68%

c1ccc(C2(N3CCCCC3)CCCCC2)cc1 [PCP, phencyclidine, reference compound]
ASP-stimulated calcium influx ([1]; ASP 50 μM, PCP 20 nM): 23.0 ± 1.7 nmol ^45 Ca^2+ /mg protein
ASP-stimulated calcium influx ([1]; ASP 50 μM, PCP 50 nM): 9.2 ± 0.5 nmol ^45 Ca^2+ /mg protein
ASP-stimulated calcium influx ([1]; ASP 50 μM, PCP 100 nM): 0.7 ± 0.1 nmol ^45 Ca^2+ /mg protein

O=C(O)[C@H]1C[C@@H](C(=O)O)N1Cc1ccccc1 [Az10, cis-N-benzylazetidine-2,4-dicarboxylic acid]
% activity (potentiation of calcium influx) ([3]; agonist Asp 10 μM (Table 3)): 121%

COC(=O)[C@@H]1C[C@H](C(=O)OC(C)(C)C)N1 (relative stereo) [Az1, cis-azetidine-2,4-dicarboxylic acid t-butyl methyl ester]
PI hydrolysis % of stimulation by 20 μM GLU [2]: 117%
Calcium Influx % of stimulation by 10 μM GLU [3]: 107%
% activity (potentiation of calcium influx) ([3]; agonist Glu 10 μM (Table 3)): 107%

NC(=O)[C@@H]1C[C@H](C(N)=O)N1 [Az9, cis-azetidine-2,4-dicarboxamide]
% activity (potentiation of calcium influx) ([3]; agonist Asp 20 μM (Table 3)): 106%

O=C(O)[C@@H]1CCN1 [Az12, L-2-azetidinecarboxylic acid, reference compound]
% activity (potentiation of calcium influx) ([3]; agonist Glu 20 μM (Table 3)): 110%

O=C(O)[C@@H]1C[C@H](C(=O)O)N1 [Az5, cis-azetidine-2,4-dicarboxylic acid]
potentiation of the action of GLU ([5]; 50 μM Az5, from EC50 of GLU): 7 fold
displacement of specific [^3 H]PCP binding [6]: failed to displace the specific binding of [^3 H]PCP
ASP-stimulated calcium influx ([1]; ASP 50 μM + Az5 50 μM, PCP 20 nM): 57.2 ± 3.2 nmol ^45 Ca^2+ /mg protein
ASP-stimulated calcium influx ([1]; ASP 50 μM + Az5 50 μM, PCP 50 nM): 32.2 ± 1.3 nmol ^45 Ca^2+ /mg protein
ASP-stimulated calcium influx ([1]; ASP 50 μM + Az5 50 μM, PCP 100 nM): 13.3 ± 0.3 nmol ^45 Ca^2+ /mg protein
ASP-stimulated calcium influx ([1]; ASP 50 μM + Az5 50 μM, no PCP): 64.5 ± 2.6 nmol ^45 Ca^2+ /mg protein
action of PCP on ASP-stimulated signal transduction ([1]; with PCP): exhibits the ability to decrease the action of PCP on ASP-stimulated signal transduction
cGMP ([7]; 5 min, Az5 2 μg): 6.8 ± 0.8
cGMP % Control ([7]; 5 min, Az5 2 μg): 142 % Control
cGMP ([7]; 5 min, NMDA + Az5 together): 16.1 + 2.9
cGMP % Control ([7]; 5 min, NMDA + Az5 together): 334 % Control
cGMP ([7]; 10 min, Az5 10 μg): 14.9 ± 1.3
cGMP % Control ([7]; 10 min, Az5 10 μg): 192 % Control
cGMP ([7]; 10 min, NMDA + Az5 together): 16.5 + 2.8
cGMP % Control ([7]; 10 min, NMDA + Az5 together): 211 % Control
effect on action of endogenous receptor agonist and injected NMDA ([7]; both series): potentiated the action of the endogenous receptor agonist as well as the action of injected NMDA
PI hydrolysis % of stimulation by 20 μM GLU [2]: 124%
Calcium Influx % of stimulation by 10 μM GLU [3]: 207%
effect on calcium influx stimulated by NMDA, GLU, ASP and QUIS ([3]; GC1 receptor): potentiated
% activity (potentiation of calcium influx) ([3]; agonist Asp 10 μM (Table 3)): 196%
% activity (potentiation of calcium influx) ([3]; agonist Asp 20 μM (Table 3)): 141%
Percent Activity (potentiation of calcium influx) ([3]; agonist Aspartate (ASP) 20 μM): 144%
% activity (potentiation of calcium influx) ([3]; agonist Glu 10 μM (Table 3)): 207%
% activity (potentiation of calcium influx) ([3]; agonist Glu 20 μM (Table 3)): 157%
Percent Activity (potentiation of calcium influx) ([3]; agonist Glutamate (GLU) 20 μM): 169%
Percent Activity (potentiation of calcium influx) ([3]; agonist NMDA 20 μM): 188%
Percent Activity (potentiation of calcium influx) ([3]; agonist Quisqualate (QUIS) 20 μM): 124%
effect on the action of KAIN ([8]; GC2 receptor): not affected
Percent Activity (potentiation of calcium influx) ([8]; agonist Kainate 20 μM): 104%

CC(C)(C)OC(=O)[C@H]1C[C@H](C(=O)O)N1 (relative stereo) [Az4, trans-azetidine-2,4-dicarboxylic acid mono-t-butyl ester]
PI hydrolysis % of stimulation by 20 μM GLU [2]: 109%
Calcium Influx % of stimulation by 10 μM GLU [3]: 100%

COC(=O)[C@H]1C[C@@H](C(=O)O)N1 (relative stereo) [Az11, cis-azetidine-2,4-dicarboxylic acid methyl ester]
% activity (potentiation of calcium influx) ([3]; agonist Glu 10 μM (Table 3)): 122%

N[C@@H](CCC(=O)O)C(=O)O [GLU, Glutamate]
pEC50 ([5]; in the absence of Az5): 4.29
pEC50 ([5]; in the presence of 50 μM Az5): 5.15

CN[C@H](CC(=O)O)C(=O)O [NMDA, N-methyl-D-aspartate, reference compound]
cGMP ([7]; 5 min, NMDA 2 μg): 5.6 ± 0.8
cGMP % Control ([7]; 5 min, NMDA 2 μg): 136 % Control
cGMP ([7]; 10 min, NMDA 1 μg): 10.5 ± 2.3
cGMP % Control ([7]; 10 min, NMDA 1 μg): 135 % Control
